In ChEMBL document CHEMBL4507316 (2021):

Key:
[1] = biological target: Activin receptor type-1B (Homo sapiens) (UniProt P36896); assay: ACV-R1B ProQinase selectivity panel; conditions: Compound concentration 1.0 uM
[2] = biological target: Activin receptor type-1-like (Homo sapiens) (UniProt P37023); assay: ACV-RL1 ProQinase selectivity panel; conditions: Compound concentration 1.0 uM
[3] = biological target: Mitogen-activated protein kinase kinase kinase 5 (Homo sapiens) (UniProt Q99683); assay: ASK1 ProQinase selectivity panel; conditions: Compound concentration 1.0 uM
[4] = biological target: Aurora kinase C (Homo sapiens) (UniProt Q9UQB9); assay: Aurora-C ProQinase selectivity panel; conditions: Compound concentration 1.0 uM
[5] = biological target: Protein-tyrosine kinase 6 (Homo sapiens) (UniProt Q13882); assay: BRK ProQinase selectivity panel; conditions: Compound concentration 1.0 uM
[6] = biological target: Calcium/calmodulin-dependent protein kinase type II subunit alpha (Homo sapiens) (UniProt Q9UQM7); assay: CAMK2A ProQinase selectivity panel; conditions: Compound concentration 1.0 uM
[7] = biological target: CDK1/Cyclin E (Homo sapiens) (UniProt P06493+P24864); assay: CDK1/CycE ProQinase selectivity panel; assay type: protein-complex assay; conditions: Compound concentration 1.0 uM
[8] = biological target: CDK7/Cyclin H/MNAT1 (Homo sapiens) (UniProt P51946+P50613+P51948); assay: CDK7/CycH/MAT1 ProQinase selectivity panel; assay type: protein-complex assay; conditions: Compound concentration 1.0 uM
[9] = system: Epidermal growth factor receptor (Homo sapiens), P00533 [UNDEFINED MUTATION]; assay: EGF-R d752-759 ProQinase selectivity panel; conditions: Compound concentration 1.0 uM
[10] = biological target: Epidermal growth factor receptor (Homo sapiens) (UniProt P00533); assay: EGF-R wt ProQinase selectivity panel; conditions: Compound concentration 1.0 uM
[11] = biological target: Ephrin type-A receptor 2 (Homo sapiens) (UniProt P29317); assay: EPHA2 ProQinase selectivity panel; conditions: Compound concentration 1.0 uM
[12] = biological target: Ephrin type-A receptor 7 (Homo sapiens) (UniProt Q15375); assay: EPHA7 ProQinase selectivity panel; conditions: Compound concentration 1.0 uM
[13] = biological target: Ephrin type-A receptor 8 (Homo sapiens) (UniProt P29322); assay: EPHA8 ProQinase selectivity panel; conditions: Compound concentration 1.0 uM
[14] = biological target: Tyrosine-protein kinase Fer (Homo sapiens) (UniProt P16591); assay: FER ProQinase selectivity panel; conditions: Compound concentration 1.0 uM
[15] = system: Fibroblast growth factor receptor 1 (Homo sapiens), P11362 [V561M]; assay: FGF-R1 V561M ProQinase selectivity panel; conditions: Compound concentration 1.0 uM
[16] = biological target: Tyrosine-protein kinase Fyn (Homo sapiens) (UniProt P06241); assay: FYN ProQinase selectivity panel; conditions: Compound concentration 1.0 uM
[17] = biological target: Glycogen synthase kinase-3 beta (Homo sapiens) (UniProt P49841); assay: GSK3-beta ProQinase selectivity panel; conditions: Compound concentration 1.0 uM
[18] = biological target: Homeodomain-interacting protein kinase 4 (Homo sapiens) (UniProt Q8NE63); assay: HIPK4 ProQinase selectivity panel; conditions: Compound concentration 1.0 uM
[19] = biological target: Mitogen-activated protein kinase 10 (Homo sapiens) (UniProt P53779); assay: JNK3 ProQinase selectivity panel; conditions: Compound concentration 1.0 uM
[20] = biological target: Mast/stem cell growth factor receptor Kit (Homo sapiens) (UniProt P10721); assay: KIT wt ProQinase selectivity panel; conditions: Compound concentration 1.0 uM
[21] = biological target: LIM domain kinase 2 (Homo sapiens) (UniProt P53671); assay: LIMK2 ProQinase selectivity panel; conditions: Compound concentration 1.0 uM
[22] = biological target: Mitogen-activated protein kinase kinase kinase kinase 4 (Homo sapiens) (UniProt O95819); assay: MAP4K4 ProQinase selectivity panel; conditions: Compound concentration 1.0 uM
[23] = biological target: MAP kinase-activated protein kinase 5 (Homo sapiens) (UniProt Q8IW41); assay: MAPKAPK5 ProQinase selectivity panel; conditions: Compound concentration 1.0 uM
[24] = biological target: Dual specificity mitogen-activated protein kinase kinase 2 (Homo sapiens) (UniProt P36507); assay: MEK2 ProQinase selectivity panel; conditions: Compound concentration 1.0 uM
[25] = biological target: Maternal embryonic leucine zipper kinase (Homo sapiens) (UniProt Q14680); assay: MELK ProQinase selectivity panel; conditions: Compound concentration 1.0 uM
[26] = system: Hepatocyte growth factor receptor (Homo sapiens), P08581 [Y1230C]; assay: MET Y1230C ProQinase selectivity panel; conditions: Compound concentration 1.0 uM
[27] = system: Hepatocyte growth factor receptor (Homo sapiens), P08581 [Y1230D]; assay: MET Y1230D ProQinase selectivity panel; conditions: Compound concentration 1.0 uM
[28] = system: Hepatocyte growth factor receptor (Homo sapiens), P08581 [Y1230H]; assay: MET Y1230H ProQinase selectivity panel; conditions: Compound concentration 1.0 uM
[29] = biological target: Serine/threonine-protein kinase 4 (Homo sapiens) (UniProt Q13043); assay: MST1 ProQinase selectivity panel; conditions: Compound concentration 1.0 uM
[30] = biological target: Serine/threonine-protein kinase 26 (Homo sapiens) (UniProt Q9P289); assay: MST4 ProQinase selectivity panel; conditions: Compound concentration 1.0 uM
[31] = biological target: Serine/threonine-protein kinase mTOR (Homo sapiens) (UniProt P42345); assay: mTOR ProQinase selectivity panel; conditions: Compound concentration 1.0 uM
[32] = biological target: Serine/threonine-protein kinase PAK 1 (Homo sapiens) (UniProt Q13153); assay: PAK1 ProQinase selectivity panel; conditions: Compound concentration 1.0 uM
[33] = system: Platelet-derived growth factor receptor alpha (Homo sapiens), P16234 [T674I]; assay: PDGFR-alpha T674I ProQinase selectivity panel; conditions: Compound concentration 1.0 uM
[34] = biological target: Protein kinase C alpha type (Homo sapiens) (UniProt P17252); assay: PKC-alpha ProQinase selectivity panel; conditions: Compound concentration 1.0 uM
[35] = system: Proto-oncogene tyrosine-protein kinase receptor Ret (Homo sapiens), P07949 [Y791F]; assay: RET Y791F ProQinase selectivity panel; conditions: Compound concentration 1.0 uM
[36] = biological target: Ribosomal protein S6 kinase alpha-1 (Homo sapiens) (UniProt Q15418); assay: RPS6KA1 ProQinase selectivity panel; conditions: Compound concentration 1.0 uM
[37] = biological target: Ribosomal protein S6 kinase alpha-3 (Homo sapiens) (UniProt P51812); assay: RPS6KA3 ProQinase selectivity panel; conditions: Compound concentration 1.0 uM
[38] = biological target: Serine/threonine-protein kinase 25 (Homo sapiens) (UniProt O00506); assay: STK25 ProQinase selectivity panel; conditions: Compound concentration 1.0 uM
[39] = biological target: Serine/threonine-protein kinase TAO2 (Homo sapiens) (UniProt Q9UL54); assay: TAOK2 ProQinase selectivity panel; conditions: Compound concentration 1.0 uM
[40] = biological target: Serine/threonine-protein kinase TAO3 (Homo sapiens) (UniProt Q9H2K8); assay: TAOK3 ProQinase selectivity panel; conditions: Compound concentration 1.0 uM
[41] = biological target: Dual specificity protein kinase TTK (Homo sapiens) (UniProt P33981); assay: TTK ProQinase selectivity panel; conditions: Compound concentration 1.0 uM
[42] = biological target: Serine/threonine-protein kinase VRK1 (Homo sapiens) (UniProt Q99986); assay: VRK1 ProQinase selectivity panel; conditions: Compound concentration 1.0 uM
[43] = biological target: Serine/threonine-protein kinase WNK3 (Homo sapiens) (UniProt Q9BYP7); assay: WNK3 ProQinase selectivity panel; conditions: Compound concentration 1.0 uM
[44] = biological target: 5-hydroxytryptamine receptor 1A (Homo sapiens) (UniProt P08908); conditions: Compound concentration 10.0 uM
[45] = biological target: 5-hydroxytryptamine receptor 7 (Homo sapiens) (UniProt P34969); conditions: Compound concentration 10.0 uM
[46] = biological target: Sodium-dependent noradrenaline transporter (Homo sapiens) (UniProt P23975); conditions: Compound concentration 10.0 uM
[47] = biological target: Sodium-dependent dopamine transporter (Homo sapiens, UniProt Q01959); conditions: Compound concentration 10.0 uM
[48] = biological target: GABA-A receptor; anion channel (Rattus norvegicus) (UniProt O09028+P15431+P18506+P18508+P19969+P20236+P23574+P23576+P28471+P28473+P30191+P62813+P63079+P63138+Q91ZM7+Q9ES14); conditions: Compound concentration 10.0 uM

Chain of Mitogen-activated protein kinase kinase kinase kinase 4 (Homo sapiens) (O95819 2-1239 limits assumed): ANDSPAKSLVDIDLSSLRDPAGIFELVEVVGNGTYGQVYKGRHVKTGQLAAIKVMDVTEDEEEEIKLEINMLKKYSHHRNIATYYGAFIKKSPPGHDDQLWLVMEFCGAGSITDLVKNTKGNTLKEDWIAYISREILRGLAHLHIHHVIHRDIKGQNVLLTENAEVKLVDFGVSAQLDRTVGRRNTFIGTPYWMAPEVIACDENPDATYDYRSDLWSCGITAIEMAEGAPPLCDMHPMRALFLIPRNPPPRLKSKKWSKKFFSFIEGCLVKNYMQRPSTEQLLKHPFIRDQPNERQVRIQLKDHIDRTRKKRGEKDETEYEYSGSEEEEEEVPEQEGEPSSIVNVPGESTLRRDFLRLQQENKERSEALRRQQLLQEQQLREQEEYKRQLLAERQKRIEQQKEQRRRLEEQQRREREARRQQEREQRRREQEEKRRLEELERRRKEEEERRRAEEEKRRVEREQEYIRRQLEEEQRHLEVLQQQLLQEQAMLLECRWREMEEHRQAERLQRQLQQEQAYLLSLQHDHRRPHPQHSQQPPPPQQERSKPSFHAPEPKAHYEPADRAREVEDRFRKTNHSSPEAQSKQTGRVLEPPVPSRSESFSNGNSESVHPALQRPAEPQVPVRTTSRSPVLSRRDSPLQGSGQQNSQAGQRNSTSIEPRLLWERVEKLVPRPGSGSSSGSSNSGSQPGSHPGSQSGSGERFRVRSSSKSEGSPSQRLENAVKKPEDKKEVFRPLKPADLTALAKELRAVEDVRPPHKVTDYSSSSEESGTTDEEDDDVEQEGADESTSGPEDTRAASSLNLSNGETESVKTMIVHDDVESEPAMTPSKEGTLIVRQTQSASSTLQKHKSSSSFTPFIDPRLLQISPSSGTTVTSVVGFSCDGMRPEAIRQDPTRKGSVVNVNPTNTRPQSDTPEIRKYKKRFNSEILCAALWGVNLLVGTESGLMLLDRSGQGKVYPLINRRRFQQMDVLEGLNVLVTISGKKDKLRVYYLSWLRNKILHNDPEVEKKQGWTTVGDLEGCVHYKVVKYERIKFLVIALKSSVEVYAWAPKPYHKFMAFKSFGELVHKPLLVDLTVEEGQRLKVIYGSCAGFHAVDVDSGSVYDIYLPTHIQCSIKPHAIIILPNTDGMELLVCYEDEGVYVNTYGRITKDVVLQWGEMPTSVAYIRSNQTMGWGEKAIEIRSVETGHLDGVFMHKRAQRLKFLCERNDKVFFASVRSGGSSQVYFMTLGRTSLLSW
Chain of Aurora kinase C (Homo sapiens) (Q9UQB9 whole entry): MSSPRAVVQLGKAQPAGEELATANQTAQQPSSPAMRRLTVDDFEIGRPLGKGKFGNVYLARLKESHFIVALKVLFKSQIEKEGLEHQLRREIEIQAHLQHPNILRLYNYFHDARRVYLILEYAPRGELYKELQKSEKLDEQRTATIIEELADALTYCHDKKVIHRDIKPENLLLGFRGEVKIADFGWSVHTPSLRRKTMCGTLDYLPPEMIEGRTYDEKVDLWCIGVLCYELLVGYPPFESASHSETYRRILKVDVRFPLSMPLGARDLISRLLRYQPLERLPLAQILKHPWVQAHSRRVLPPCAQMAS
Chain of Homeodomain-interacting protein kinase 4 (Homo sapiens) (Q8NE63 whole entry): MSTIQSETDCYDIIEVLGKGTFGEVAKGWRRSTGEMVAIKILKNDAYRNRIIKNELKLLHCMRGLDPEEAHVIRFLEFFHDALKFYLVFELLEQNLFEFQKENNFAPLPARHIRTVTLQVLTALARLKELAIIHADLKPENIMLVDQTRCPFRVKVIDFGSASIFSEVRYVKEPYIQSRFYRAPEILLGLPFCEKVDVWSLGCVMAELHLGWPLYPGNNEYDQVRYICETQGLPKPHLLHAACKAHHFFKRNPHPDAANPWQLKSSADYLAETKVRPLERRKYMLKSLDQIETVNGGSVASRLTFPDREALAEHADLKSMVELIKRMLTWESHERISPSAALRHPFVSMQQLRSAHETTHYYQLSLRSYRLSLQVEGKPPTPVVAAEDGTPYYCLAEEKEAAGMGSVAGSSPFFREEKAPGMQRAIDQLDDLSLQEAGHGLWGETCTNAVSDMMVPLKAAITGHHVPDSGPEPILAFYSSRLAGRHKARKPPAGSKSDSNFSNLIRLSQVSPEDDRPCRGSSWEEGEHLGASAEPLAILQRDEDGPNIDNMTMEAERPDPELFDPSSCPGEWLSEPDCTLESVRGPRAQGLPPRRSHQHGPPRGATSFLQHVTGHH
Chain of Serine/threonine-protein kinase 4 (Homo sapiens) (Q13043 whole entry): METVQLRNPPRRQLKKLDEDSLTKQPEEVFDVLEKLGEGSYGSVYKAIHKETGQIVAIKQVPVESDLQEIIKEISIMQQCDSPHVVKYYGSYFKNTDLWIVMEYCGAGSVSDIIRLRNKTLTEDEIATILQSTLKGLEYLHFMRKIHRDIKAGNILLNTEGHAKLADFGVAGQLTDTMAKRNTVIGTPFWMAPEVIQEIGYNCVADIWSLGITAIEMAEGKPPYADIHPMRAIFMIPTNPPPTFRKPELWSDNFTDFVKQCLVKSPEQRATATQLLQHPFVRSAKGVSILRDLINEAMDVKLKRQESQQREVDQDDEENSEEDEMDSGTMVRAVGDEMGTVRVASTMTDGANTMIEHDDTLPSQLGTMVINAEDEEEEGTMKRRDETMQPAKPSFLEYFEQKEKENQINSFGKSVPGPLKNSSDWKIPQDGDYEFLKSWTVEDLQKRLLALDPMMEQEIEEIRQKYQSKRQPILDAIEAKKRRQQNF
Chain of Protein-tyrosine kinase 6 (Homo sapiens) (Q13882 whole entry, looked up): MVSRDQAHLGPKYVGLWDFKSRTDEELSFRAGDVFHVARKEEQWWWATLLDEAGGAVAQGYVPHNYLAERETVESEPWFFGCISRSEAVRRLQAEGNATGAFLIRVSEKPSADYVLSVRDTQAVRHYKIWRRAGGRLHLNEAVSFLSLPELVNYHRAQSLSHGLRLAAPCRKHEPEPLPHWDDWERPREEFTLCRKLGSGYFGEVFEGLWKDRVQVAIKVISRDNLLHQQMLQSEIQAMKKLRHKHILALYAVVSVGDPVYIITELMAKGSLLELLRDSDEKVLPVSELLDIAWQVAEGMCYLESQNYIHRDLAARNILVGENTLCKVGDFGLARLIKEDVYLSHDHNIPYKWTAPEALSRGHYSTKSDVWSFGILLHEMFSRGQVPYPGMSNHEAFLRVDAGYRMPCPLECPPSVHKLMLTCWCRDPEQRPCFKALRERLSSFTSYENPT
Chain of Platelet-derived growth factor receptor alpha (Homo sapiens), P16234 [T674I] (P16234 whole entry T674I): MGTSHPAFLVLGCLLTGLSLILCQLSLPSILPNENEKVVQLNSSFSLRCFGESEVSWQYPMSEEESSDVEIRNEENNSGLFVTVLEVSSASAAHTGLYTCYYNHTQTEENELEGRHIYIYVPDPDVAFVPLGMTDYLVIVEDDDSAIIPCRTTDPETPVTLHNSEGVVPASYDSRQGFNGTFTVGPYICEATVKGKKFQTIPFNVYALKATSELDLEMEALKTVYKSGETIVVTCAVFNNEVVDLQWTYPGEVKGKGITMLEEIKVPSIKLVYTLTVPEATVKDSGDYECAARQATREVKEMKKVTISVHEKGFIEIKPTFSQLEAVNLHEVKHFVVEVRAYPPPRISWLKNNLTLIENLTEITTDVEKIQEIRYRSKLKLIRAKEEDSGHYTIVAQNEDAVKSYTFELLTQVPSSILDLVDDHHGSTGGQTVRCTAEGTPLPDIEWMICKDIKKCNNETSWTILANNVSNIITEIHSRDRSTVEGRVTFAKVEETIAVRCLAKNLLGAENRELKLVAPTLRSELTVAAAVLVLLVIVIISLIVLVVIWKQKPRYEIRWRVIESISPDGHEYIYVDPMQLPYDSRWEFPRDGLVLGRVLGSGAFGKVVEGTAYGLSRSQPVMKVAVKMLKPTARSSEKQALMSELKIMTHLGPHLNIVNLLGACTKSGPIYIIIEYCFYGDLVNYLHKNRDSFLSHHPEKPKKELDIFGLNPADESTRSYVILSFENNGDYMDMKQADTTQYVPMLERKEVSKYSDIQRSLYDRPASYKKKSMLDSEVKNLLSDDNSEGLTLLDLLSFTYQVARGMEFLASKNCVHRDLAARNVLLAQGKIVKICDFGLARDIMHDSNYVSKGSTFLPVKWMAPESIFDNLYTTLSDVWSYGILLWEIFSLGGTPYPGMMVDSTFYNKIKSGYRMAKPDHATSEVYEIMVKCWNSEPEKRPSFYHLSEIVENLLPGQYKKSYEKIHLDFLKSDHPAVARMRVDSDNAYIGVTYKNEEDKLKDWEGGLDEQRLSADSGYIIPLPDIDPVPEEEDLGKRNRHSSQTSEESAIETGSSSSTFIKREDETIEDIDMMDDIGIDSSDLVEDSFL
Chain of Maternal embryonic leucine zipper kinase (Homo sapiens) (Q14680 whole entry, looked up): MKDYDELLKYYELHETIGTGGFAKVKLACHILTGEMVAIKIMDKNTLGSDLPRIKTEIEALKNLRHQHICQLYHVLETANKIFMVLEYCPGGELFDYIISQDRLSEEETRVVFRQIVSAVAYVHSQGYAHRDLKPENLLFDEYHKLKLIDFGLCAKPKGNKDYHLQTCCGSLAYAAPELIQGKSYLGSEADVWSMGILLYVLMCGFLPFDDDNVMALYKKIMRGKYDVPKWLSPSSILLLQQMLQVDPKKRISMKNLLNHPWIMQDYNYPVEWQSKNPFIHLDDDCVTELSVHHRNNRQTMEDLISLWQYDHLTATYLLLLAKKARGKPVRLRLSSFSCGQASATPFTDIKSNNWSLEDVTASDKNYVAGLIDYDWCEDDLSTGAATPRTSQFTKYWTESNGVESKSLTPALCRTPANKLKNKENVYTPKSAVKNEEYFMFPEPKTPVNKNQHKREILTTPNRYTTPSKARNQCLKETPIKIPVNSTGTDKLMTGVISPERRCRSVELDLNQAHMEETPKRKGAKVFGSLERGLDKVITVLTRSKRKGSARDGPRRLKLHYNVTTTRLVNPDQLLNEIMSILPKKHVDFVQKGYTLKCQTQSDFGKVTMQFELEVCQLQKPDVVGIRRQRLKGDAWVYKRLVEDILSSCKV

How did the % Residual activity with Skepinone-L [1] turn out when `O=C1c2ccc(Nc3ccc(F)cc3F)cc2CCc2ccc(OC[C@H](O)CO)cc21` [Skepinone-L] was run?
Its % Residual activity with Skepinone-L is 77%.

What about the % Residual activity with Skepinone-L [2] of the same compound?
The % Residual activity with Skepinone-L was 105%.

What about the % Residual activity with Skepinone-L [3] of the same compound?
Its % Residual activity with Skepinone-L is 103%.

And the % Residual activity with Skepinone-L [4]?
The % Residual activity with Skepinone-L was 85%.

What about the % Residual activity with Skepinone-L [5] of the same compound?
Its % Residual activity with Skepinone-L is 84%.

What about the % Residual activity with Skepinone-L [6] of the same compound?
The % Residual activity with Skepinone-L was 83%.

What about the % Residual activity with Skepinone-L [7] of the same compound?
Its % Residual activity with Skepinone-L is 87%.

What about the % Residual activity with Skepinone-L [8] of the same compound?
The % Residual activity with Skepinone-L was 107%.

What about the % Residual activity with Skepinone-L [9] of the same compound?
The % Residual activity with Skepinone-L was 83%.

What about the % Residual activity with Skepinone-L [10] of the same compound?
Its % Residual activity with Skepinone-L is 94%.

What about the % Residual activity with Skepinone-L [11] of the same compound?
The % Residual activity with Skepinone-L was 119%.

And the % Residual activity with Skepinone-L [12]?
The % Residual activity with Skepinone-L was 109%.

What about the % Residual activity with Skepinone-L [13] of the same compound?
Its % Residual activity with Skepinone-L is 95%.

What about the % Residual activity with Skepinone-L [14] of the same compound?
Its % Residual activity with Skepinone-L is 101%.

And the % Residual activity with Skepinone-L [15]?
Its % Residual activity with Skepinone-L is 89%.

And the % Residual activity with Skepinone-L [16]?
The % Residual activity with Skepinone-L was 124%.

And the % Residual activity with Skepinone-L [17]?
Its % Residual activity with Skepinone-L is 97%.

What about the % Residual activity with Skepinone-L [18] of the same compound?
The % Residual activity with Skepinone-L was 116%.

What about the % Residual activity with Skepinone-L [19] of the same compound?
The % Residual activity with Skepinone-L was 33%.

And the % Residual activity with Skepinone-L [20]?
Its % Residual activity with Skepinone-L is 111%.

What about the % Residual activity with Skepinone-L [21] of the same compound?
The % Residual activity with Skepinone-L was 100%.

And the % Residual activity with Skepinone-L [22]?
The % Residual activity with Skepinone-L was 79%.

And the % Residual activity with Skepinone-L [23]?
The % Residual activity with Skepinone-L was 97%.

And the % Residual activity with Skepinone-L [24]?
Its % Residual activity with Skepinone-L is 99%.

What about the % Residual activity with Skepinone-L [25] of the same compound?
The % Residual activity with Skepinone-L was 81%.

And the % Residual activity with Skepinone-L [26]?
Its % Residual activity with Skepinone-L is 97%.

What about the % Residual activity with Skepinone-L [27] of the same compound?
Its % Residual activity with Skepinone-L is 95%.

And the % Residual activity with Skepinone-L [28]?
The % Residual activity with Skepinone-L was 102%.

And the % Residual activity with Skepinone-L [29]?
The % Residual activity with Skepinone-L was 71%.

And the % Residual activity with Skepinone-L [30]?
The % Residual activity with Skepinone-L was 106%.

What about the % Residual activity with Skepinone-L [31] of the same compound?
The % Residual activity with Skepinone-L was 97%.

And the % Residual activity with Skepinone-L [32]?
The % Residual activity with Skepinone-L was 100%.

And the % Residual activity with Skepinone-L [33]?
Its % Residual activity with Skepinone-L is 97%.

What about the % Residual activity with Skepinone-L [34] of the same compound?
The % Residual activity with Skepinone-L was 96%.

What about the % Residual activity with Skepinone-L [35] of the same compound?
The % Residual activity with Skepinone-L was 141%.

And the % Residual activity with Skepinone-L [36]?
The % Residual activity with Skepinone-L was 89%.

And the % Residual activity with Skepinone-L [37]?
Its % Residual activity with Skepinone-L is 89%.

And the % Residual activity with Skepinone-L [38]?
Its % Residual activity with Skepinone-L is 100%.

What about the % Residual activity with Skepinone-L [39] of the same compound?
The % Residual activity with Skepinone-L was 102%.

What about the % Residual activity with Skepinone-L [40] of the same compound?
Its % Residual activity with Skepinone-L is 102%.

What about the % Residual activity with Skepinone-L [41] of the same compound?
Its % Residual activity with Skepinone-L is 83%.

And the % Residual activity with Skepinone-L [42]?
Its % Residual activity with Skepinone-L is 88%.

And the % Residual activity with Skepinone-L [43]?
Its % Residual activity with Skepinone-L is 100%.

And the inhibition [44]?
Its inhibition is 40.5%.

What about the inhibition [45] of the same compound?
Its inhibition is -9.25%.

And the inhibition [46]?
Its inhibition is 29.4%.

And the inhibition [47]?
The inhibition was 81.4%.

What about the inhibition [48] of the same compound?
The inhibition was 12.8%.
